Assays:
MAO-B = biological target: T1, MAO-B (Rattus norvegicus, UniProt P19643); experiment: In vitro MAO-B enzyme activity radioenzymatic assay (14C-phenylethylamine substrate), rat brain crude mitochondrial fraction
T1 sequence (P19643 1-520): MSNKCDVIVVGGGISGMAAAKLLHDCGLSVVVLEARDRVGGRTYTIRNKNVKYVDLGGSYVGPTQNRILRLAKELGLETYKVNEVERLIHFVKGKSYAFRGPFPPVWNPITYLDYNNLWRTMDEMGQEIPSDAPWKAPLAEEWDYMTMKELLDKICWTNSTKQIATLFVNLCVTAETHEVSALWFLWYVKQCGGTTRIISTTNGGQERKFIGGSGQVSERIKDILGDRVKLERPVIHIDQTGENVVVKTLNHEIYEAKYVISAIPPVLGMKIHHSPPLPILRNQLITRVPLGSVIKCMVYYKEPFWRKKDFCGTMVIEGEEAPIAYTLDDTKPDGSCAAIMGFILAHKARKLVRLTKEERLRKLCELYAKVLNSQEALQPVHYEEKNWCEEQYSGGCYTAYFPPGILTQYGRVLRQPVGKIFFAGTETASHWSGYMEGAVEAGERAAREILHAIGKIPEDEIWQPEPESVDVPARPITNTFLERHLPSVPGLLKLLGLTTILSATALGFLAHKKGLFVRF

MAO-A = biological target: T2, MAO-A (Rattus norvegicus, UniProt P21396); experiment: In vitro MAO-A enzyme activity radioenzymatic assay (14C-serotonin substrate), rat brain crude mitochondrial fraction
T2 sequence (P21396 1-526): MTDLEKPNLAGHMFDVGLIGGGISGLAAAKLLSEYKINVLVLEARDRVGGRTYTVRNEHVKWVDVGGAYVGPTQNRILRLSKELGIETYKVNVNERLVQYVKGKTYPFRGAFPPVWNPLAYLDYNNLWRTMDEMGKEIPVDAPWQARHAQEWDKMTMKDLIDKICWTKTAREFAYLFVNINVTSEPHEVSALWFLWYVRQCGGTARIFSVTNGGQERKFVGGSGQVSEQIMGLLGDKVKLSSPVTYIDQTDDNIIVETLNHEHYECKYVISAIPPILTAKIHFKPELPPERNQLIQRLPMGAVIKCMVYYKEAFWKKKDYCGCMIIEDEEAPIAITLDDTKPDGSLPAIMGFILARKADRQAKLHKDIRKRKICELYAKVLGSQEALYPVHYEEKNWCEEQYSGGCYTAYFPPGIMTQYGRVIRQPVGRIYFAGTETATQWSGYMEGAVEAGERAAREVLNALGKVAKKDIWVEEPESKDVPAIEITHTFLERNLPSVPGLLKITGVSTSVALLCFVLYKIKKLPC

IC50 (MAO-B) [nM]	IC50 (MAO-A) [nM]	Compound
50	70000	NC(=O)Cc1cc(=O)oc2cc(OCc3cccc(F)c3)ccc12 [4-[(Aminocarbonyl)methyl]-7-(3-fluorobenzyloxy)-2H-chromen-2-one]
80	15300	CN(C)C(=O)CC1=CCOc2cc(OCc3ccccc3)ccc21 [4-[(Dimethylaminocarbonyl)methyl]-7-benzyloxy-2H-chromene]
	1400	NNC(=O)Cc1cc(=O)oc2cc(OCc3ccccc3)ccc12 [4-[(Hydrazinocarbonyl)methyl]-7-benzyloxy-2H-chromen-2-one]
40	> 100000	CN(C)C(=O)Cc1cc(=O)oc2cc(OCc3cccc(Cl)c3)ccc12 [4-[Dimethylaminocarbonyl)methyl]-7-(3-chlorobenzyloxy)-2H-chromen-2-one]

The next lines start with the compound.

Compound	IC50 (MAO-B) [nM]	IC50 (MAO-A) [nM]
CNCCc1cc(=O)oc2cc(OCc3cccc(Cl)c3)ccc12 [4-[2-(Methylamino)ethyl]-7-(3-chlorobenzyloxy)-2H-chromen-2-one]	300	74000
NCCc1cc(=O)oc2cc(OCc3cccc(Cl)c3)ccc12 [4-(2-Aminoethyl)-7-(3-chlorobenzyloxy)-2H-chromen-2-one]	250	31800
CNCc1cc(=O)oc2cc(OCc3cccc(Cl)c3)ccc12 [4-[(Methylamino)methyl]-7-(3-chlorobenzyloxy)-2H-chromen-2-one]	10	5900
CNCc1cc(=O)oc2cc(OCc3cccc(F)c3)ccc12 [4-[(Methylamino)methyl]-7-(3-fluorobenzyloxy)-2H-chromen-2-one]	20	13500
NCc1cc(=O)oc2cc(OCc3cccc(Cl)c3)ccc12 [4-Aminomethyl-7-(3-chlorobenzyloxy)-2H-chromen-2-one]	10	1900
